Activity calls are given as the source filed them.
Molecular target: T1, Nucleoside diphosphate phosphatase ENTPD5 (Homo sapiens) (UniProt O75356)
T1 sequence (whole entry): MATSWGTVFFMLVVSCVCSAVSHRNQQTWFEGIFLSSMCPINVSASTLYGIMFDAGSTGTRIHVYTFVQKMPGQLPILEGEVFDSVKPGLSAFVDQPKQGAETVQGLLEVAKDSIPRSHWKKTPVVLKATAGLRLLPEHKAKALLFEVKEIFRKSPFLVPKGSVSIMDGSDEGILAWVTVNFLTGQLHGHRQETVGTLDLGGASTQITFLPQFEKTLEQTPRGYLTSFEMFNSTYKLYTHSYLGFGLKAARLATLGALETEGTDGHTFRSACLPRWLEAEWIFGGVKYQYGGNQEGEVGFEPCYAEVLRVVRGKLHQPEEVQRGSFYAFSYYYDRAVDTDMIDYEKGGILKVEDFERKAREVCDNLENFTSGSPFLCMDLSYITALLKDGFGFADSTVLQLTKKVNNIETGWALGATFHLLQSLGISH
Test: Inhibition of human recombinant ENTPD5 expressed in insect cells assessed as reduction in UDP hydrolysis at 1 uM incubated for 1 hr in presence of UMP, GTP and ATP by Escherichia coli UMP kinase pyrH catalyzed UMP phosphorylation coupled luciferase assay

SMILES | inhibition
O=C(CN1C(=O)/C(=C2\SC(N3CCOCC3)=NC2=O)c2ccccc21)Nc1cccc(Br)c1 | Active
O=C1NC(=S)NC(=O)C1=Cc1ccc(-c2cc(Cl)ccc2Cl)o1 | Active
O=C1NC(=S)N(c2ccccc2)C(=O)/C1=C/c1cccn1-c1ccc(Cl)cc1 | Active
O=C1NC(=O)C(=Cc2ccc(-c3ccc(I)cc3)o2)C(=O)N1 | Active
O=C1NC(=S)N(c2ccccc2F)C(=O)/C1=C/c1cccn1-c1ccc(Br)cc1 | Active
O=C1NC(=O)N(c2ccc(F)cc2)C(=O)/C1=C/c1ccc(Sc2ccc(Cl)cc2)o1 | Active
Cc1cc(/C=C2\C(=O)NC(=S)N(c3ccc(Cl)cc3)C2=O)c(C)n1-c1ccc([N+](=O)[O-])cc1 | Active

Molecular target: T1, Nucleoside diphosphate phosphatase ENTPD5 (Homo sapiens)
Test: Inhibition of human recombinant ENTPD5 expressed in insect cells assessed as reduction in reduction in UDP hydrolysis by measuring inorganic phosphate release incubated for 1 hr by malachite green based assay

SMILES | inhibition
O=C(CN1C(=O)/C(=C2\SC(N3CCOCC3)=NC2=O)c2ccccc21)Nc1cccc(Br)c1 | Active
O=C1NC(=S)NC(=O)C1=Cc1ccc(-c2cc(Cl)ccc2Cl)o1 | Active
O=C1NC(=S)N(c2ccccc2)C(=O)/C1=C/c1cccn1-c1ccc(Cl)cc1 | Active
O=C1NC(=O)C(=Cc2ccc(-c3ccc(I)cc3)o2)C(=O)N1 | Active
O=C1NC(=S)N(c2ccccc2F)C(=O)/C1=C/c1cccn1-c1ccc(Br)cc1 | Active
O=C1NC(=O)N(c2ccc(F)cc2)C(=O)/C1=C/c1ccc(Sc2ccc(Cl)cc2)o1 | Active
Cc1cc(/C=C2\C(=O)NC(=S)N(c3ccc(Cl)cc3)C2=O)c(C)n1-c1ccc([N+](=O)[O-])cc1 | Active

System: LNCaP
Test: Antitumor activity against human LNCAP cells xenografted in mouse assessed as reduction in cells left in matrigels at 1 to 100 mg/kg, ip dosed every other day and measured after 6 weeks by hematoxylin and eosin staining based microscopy
Format: functional, organism-based

SMILES | Activity
O=C(CN1C(=O)/C(=C2\SC(N3CCOCC3)=NC2=O)c2ccccc21)Nc1cccc(Br)c1 | Active
O=C1NC(=S)NC(=O)C1=Cc1ccc(-c2cc(Cl)ccc2Cl)o1 | Active
O=C1NC(=S)N(c2ccccc2)C(=O)/C1=C/c1cccn1-c1ccc(Cl)cc1 | Active
O=C1NC(=O)C(=Cc2ccc(-c3ccc(I)cc3)o2)C(=O)N1 | Active
O=C1NC(=S)N(c2ccccc2F)C(=O)/C1=C/c1cccn1-c1ccc(Br)cc1 | Active
O=C1NC(=O)N(c2ccc(F)cc2)C(=O)/C1=C/c1ccc(Sc2ccc(Cl)cc2)o1 | Active
Cc1cc(/C=C2\C(=O)NC(=S)N(c3ccc(Cl)cc3)C2=O)c(C)n1-c1ccc([N+](=O)[O-])cc1 | Active

Molecular target: T2, Ectonucleoside triphosphate diphosphohydrolase 5 (Mus musculus) (UniProt Q9WUZ9)
T2 sequence (whole entry): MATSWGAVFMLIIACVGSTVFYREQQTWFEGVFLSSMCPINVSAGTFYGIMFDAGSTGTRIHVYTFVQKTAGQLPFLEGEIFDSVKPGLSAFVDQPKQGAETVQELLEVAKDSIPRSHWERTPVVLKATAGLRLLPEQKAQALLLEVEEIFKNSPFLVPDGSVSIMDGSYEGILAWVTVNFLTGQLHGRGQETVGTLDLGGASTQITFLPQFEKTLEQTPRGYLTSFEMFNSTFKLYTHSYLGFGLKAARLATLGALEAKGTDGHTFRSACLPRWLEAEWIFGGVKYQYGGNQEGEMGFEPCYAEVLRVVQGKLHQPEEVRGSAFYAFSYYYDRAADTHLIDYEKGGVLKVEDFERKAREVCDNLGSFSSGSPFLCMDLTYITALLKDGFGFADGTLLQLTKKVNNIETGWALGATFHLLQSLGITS
Test: Inhibition of ENTPD5 in PTEN knockout mouse MEF cells assessed as induction of ER stress by measuring increase in GRP78/BiP expression at 30 uM incubated for 24 hrs by Western blotting analysis
Format: cell-based

SMILES | inhibition
O=C(CN1C(=O)/C(=C2\SC(N3CCOCC3)=NC2=O)c2ccccc21)Nc1cccc(Br)c1 | Active
O=C1NC(=S)NC(=O)C1=Cc1ccc(-c2cc(Cl)ccc2Cl)o1 | Active
O=C1NC(=S)N(c2ccccc2)C(=O)/C1=C/c1cccn1-c1ccc(Cl)cc1 | Active
O=C1NC(=O)C(=Cc2ccc(-c3ccc(I)cc3)o2)C(=O)N1 | Active
O=C1NC(=S)N(c2ccccc2F)C(=O)/C1=C/c1cccn1-c1ccc(Br)cc1 | Active
O=C1NC(=O)N(c2ccc(F)cc2)C(=O)/C1=C/c1ccc(Sc2ccc(Cl)cc2)o1 | Active
Cc1cc(/C=C2\C(=O)NC(=S)N(c3ccc(Cl)cc3)C2=O)c(C)n1-c1ccc([N+](=O)[O-])cc1 | Active

Molecular target: T1, Nucleoside diphosphate phosphatase ENTPD5 (Homo sapiens)
Test: Inhibition of human recombinant ENTPD5 expressed in insect cells assessed as reduction in UDP hydrolysis up to 10 uM incubated for 1 hr in presence of UMP, GTP and ATP by Escherichia coli UMP kinase pyrH catalyzed UMP phosphorylation coupled luciferase assay

SMILES | inhibition
O=C(CN1C(=O)/C(=C2\SC(N3CCOCC3)=NC2=O)c2ccccc21)Nc1cccc(Br)c1 | Dose-dependent effect
O=C1NC(=S)NC(=O)C1=Cc1ccc(-c2cc(Cl)ccc2Cl)o1 | Dose-dependent effect
O=C1NC(=S)N(c2ccccc2)C(=O)/C1=C/c1cccn1-c1ccc(Cl)cc1 | Dose-dependent effect
O=C1NC(=O)C(=Cc2ccc(-c3ccc(I)cc3)o2)C(=O)N1 | Dose-dependent effect
O=C1NC(=S)N(c2ccccc2F)C(=O)/C1=C/c1cccn1-c1ccc(Br)cc1 | Dose-dependent effect
O=C1NC(=O)N(c2ccc(F)cc2)C(=O)/C1=C/c1ccc(Sc2ccc(Cl)cc2)o1 | Dose-dependent effect
Cc1cc(/C=C2\C(=O)NC(=S)N(c3ccc(Cl)cc3)C2=O)c(C)n1-c1ccc([N+](=O)[O-])cc1 | Dose-dependent effect

System: LNCaP
Test: Antitumor activity against human LNCAP cells xenografted in mouse assessed as induction of tumor shrinkage at 1 to 100 mg/kg, ip dosed every other day and measured after 6 weeks by microscopy
Format: functional, organism-based

SMILES | Activity
O=C(CN1C(=O)/C(=C2\SC(N3CCOCC3)=NC2=O)c2ccccc21)Nc1cccc(Br)c1 | Active
O=C1NC(=S)NC(=O)C1=Cc1ccc(-c2cc(Cl)ccc2Cl)o1 | Active
O=C1NC(=S)N(c2ccccc2)C(=O)/C1=C/c1cccn1-c1ccc(Cl)cc1 | Active
O=C1NC(=O)C(=Cc2ccc(-c3ccc(I)cc3)o2)C(=O)N1 | Active
O=C1NC(=S)N(c2ccccc2F)C(=O)/C1=C/c1cccn1-c1ccc(Br)cc1 | Active
O=C1NC(=O)N(c2ccc(F)cc2)C(=O)/C1=C/c1ccc(Sc2ccc(Cl)cc2)o1 | Active
Cc1cc(/C=C2\C(=O)NC(=S)N(c3ccc(Cl)cc3)C2=O)c(C)n1-c1ccc([N+](=O)[O-])cc1 | Active

Molecular target: T3, Uridylate kinase (Escherichia coli (strain K12)) (UniProt P0A7E9)
T3 sequence (whole entry): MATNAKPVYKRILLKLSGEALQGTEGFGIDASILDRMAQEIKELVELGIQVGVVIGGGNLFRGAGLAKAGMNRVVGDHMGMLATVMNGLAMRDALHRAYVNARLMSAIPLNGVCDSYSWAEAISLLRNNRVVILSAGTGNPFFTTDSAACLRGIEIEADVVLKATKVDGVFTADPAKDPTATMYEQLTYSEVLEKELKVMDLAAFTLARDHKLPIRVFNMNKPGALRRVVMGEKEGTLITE
Test: Inhibition of recombinant Escherichia coli UMP kinase pyrH catalyzed UMP phosphorylation in presence of GTP and ATP incubated for 1 hr by luminescence based assay

SMILES | inhibition
O=C(CN1C(=O)/C(=C2\SC(N3CCOCC3)=NC2=O)c2ccccc21)Nc1cccc(Br)c1 | inactive
O=C1NC(=S)NC(=O)C1=Cc1ccc(-c2cc(Cl)ccc2Cl)o1 | inactive
O=C1NC(=S)N(c2ccccc2)C(=O)/C1=C/c1cccn1-c1ccc(Cl)cc1 | inactive
O=C1NC(=O)C(=Cc2ccc(-c3ccc(I)cc3)o2)C(=O)N1 | inactive
O=C1NC(=S)N(c2ccccc2F)C(=O)/C1=C/c1cccn1-c1ccc(Br)cc1 | inactive
O=C1NC(=O)N(c2ccc(F)cc2)C(=O)/C1=C/c1ccc(Sc2ccc(Cl)cc2)o1 | inactive
Cc1cc(/C=C2\C(=O)NC(=S)N(c3ccc(Cl)cc3)C2=O)c(C)n1-c1ccc([N+](=O)[O-])cc1 | inactive

— ChEMBL document CHEMBL4418495, “Entpd5 inhibitors” (2012)
